# Assay results published in patent US8420817B2, “Tricyclic N-heteroaryl-carboxamide derivatives, preparation and therapeutic use thereof” (Sanofi, priority 2007, dated 2013).
row,melting point,SMILES
1,203 to 205 °C,"CN(C)C1CCn2c1nc1cc(NC(=O)c3cc4cc(C(F)(F)F)ccc4n3Cc3cccc(F)c3)cnc12 (single isomer, unassigned; (-)) [Compound 33, (−)-N-(6-Dimethylamino-7,8-dihydro-6H-pyrrolo[2′,1′:2,3]imidazo[4,5-b]pyridin-3-yl)-5-trifluoromethyl-1-(3-fluorobenzyl)-1H-indole-2-carboxamide]"
2,263 to 264 °C,O=C(Nc1cnc2c(c1)nc1n2CCC1)c1cc2cc(Cl)ccc2n1Cc1cccc(F)c1
3,279 to 280 °C,"O=C(Nc1cnc2c(c1)nc1n2CCC1O)c1cc2cc(C(F)(F)F)cnc2n1Cc1cccc(F)c1 (single isomer, unassigned; (-)) [Compound 36, (−)-N-(6-Hydroxy-7,8-dihydro-6H-pyrrolo[2′,1′:2,3]imidazo[4,5-b]pyridin-3-yl)-5-trifluoromethyl-1-(3-fluorobenzyl)-1H-pyrrolo[2,3-b]pyridine-2-carboxamide]"
4,275 to 278 °C,"CC(C)c1ccc2cc(C(=O)Nc3cnc4c(c3)nc3n4CCC3)n(Cc3cccc(F)c3)c2c1 [Compound 17, N-(7,8-Dihydro-6H-pyrrolo[2′,1′:2,3]imidazo[4,5-b]pyridin-3-yl)-6-isopropyl-1-(3-fluorobenzyl)-1H-indole-2-carboxamide]"
5,244 to 245 °C,"CC(C)(C)c1ccc2cc(C(=O)Nc3cnc4c(c3)nc3n4CCC3)n(Cc3cccc(F)c3)c2c1 [Compound 19, N-(7,8-Dihydro-6H-pyrrolo[2′,1′:2,3]imidazo[4,5-b]pyridin-3-yl)-6-tertbutyl-1-(3-fluorobenzyl)-1H-indole-2-carboxamide]"
6,235 to 236 °C,O=C(Nc1cnc2c(c1)nc1n2CCC1)c1cc2ccc(F)cc2n1Cc1cccc(F)c1
7,218 to 220 °C,"NC1CCn2c1nc1cc(NC(=O)c3cc4cc(F)ccc4n3Cc3cccc(F)c3)cnc12 (racemic) [Compound 34, N-(6-Amino-7,8-dihydro-6H-pyrrolo[2′,1′:2,3]imidazo[4,5-b]pyridin-3-yl)-5-fluoro-1-(3-fluorobenzyl)-1H-indole-2-carboxamide]"
8,265 to 266 °C,O=C(Nc1cnc2c(c1)nc1n2CCC1)c1cc2c(F)cccc2n1Cc1cccc(F)c1
9,247 to 249 °C,"O=C(Nc1cnc2c(c1)nc1n2CCC1)c1cc2cc(C(F)(F)F)cnc2n1Cc1cccc(F)c1 [Compound 24, N-(7,8-Dihydro-6H-pyrrolo[2′,1′:2,3]imidazo[4,5-b]pyridin-3-yl)-5-trifluoromethyl-1-(3-fluorobenzyl)-1H-pyrrolo[2,3-b]pyridine-2-carboxamide]"
10,223 to 225 °C,"O=C(Nc1cnc2c(c1)nc1n2CCC1)c1cc2cc(C(F)(F)F)ccc2n1Cc1cccc(F)c1 [Compound 8, N-(7,8-Dihydro-6H-pyrrolo[2′,1′:2,3]imidazo[4,5-b]pyridin-3-yl)-5-trifluoromethyl-1-(3-fluorobenzyl)-1H-indole-2-carboxamide]"
11,269 to 271 °C,"O=C(Nc1cnc2c(c1)nc1n2CCC1O)c1cc2ccc(C(F)(F)F)cc2n1Cc1cccc(F)c1 (single isomer, unassigned; (-)) [Compound 28, (−)-N-(6-Hydroxy-7,8-dihydro-6H-pyrrolo[2′,1′:2,3]imidazo[4,5-b]pyridin-3-yl)-6-trifluoromethyl-1-(3-fluorobenzyl)-1H-indole-2-carboxamide]"
12,222 to 223 °C,"CSc1ccc2cc(C(=O)Nc3cnc4c(c3)nc3n4CCC3)n(Cc3cccc(F)c3)c2c1 [Compound 22, N-(7,8-Dihydro-6H-pyrrolo[2′,1′:2,3]imidazo[4,5-b]pyridin-3-yl)-6-methylthio-1-(3-fluorobenzyl)-1H-indole-2-carboxamide]"
13,252 to 253 °C,O=C(Nc1cnc2c(c1)nc1n2CCC1)c1cc2ccc(Cl)cc2n1Cc1cccc(F)c1
14,272 to 273 °C,"O=C(Nc1cnc2c(c1)nc1n2CCC1)c1cc2ccc(C(F)(F)F)nc2n1Cc1cccc(F)c1 [Compound 23, N-(7,8-Dihydro-6H-pyrrolo[2′,1′:2,3]imidazo[4,5-b]pyridin-3-yl)-6-trifluoromethyl-1-(3-fluorobenzyl)-1H-pyrrolo[2,3-b]pyridine-2-carboxamide]"
15,261 to 262 °C,"O=C(Nc1cnc2c(c1)nc1n2CCC1)c1cc2ccc(C(F)(F)F)cc2n1Cc1cccc(F)c1 [Compound 7, N-(7,8-Dihydro-6H-pyrrolo[2′,1′:2,3]imidazo[4,5-b]pyridin-3-yl)-6-trifluoromethyl-1-(3-fluorobenzyl)-1H-indole-2-carboxamide]"
16,237 to 238 °C,Cc1ccc2c(c1)cc(C(=O)Nc1cnc3c(c1)nc1n3CCC1)n2Cc1cccc(F)c1

row,melting point,SMILES
1,129 to 130 °C,"O=C(Nc1cnc2c(c1)nc1n2CCC1c1ccccc1)c1cc2cc(C(F)(F)F)ccc2n1Cc1cccc(F)c1 (racemic) [Compound 30, N-(6-Phenyl-7,8-dihydro-6H-pyrrolo[2′,1′:2,3]imidazo[4,5-b]pyridin-3-yl)-5-trifluoromethyl-1-(3-fluorobenzyl)-1H-indole-2-carboxamide]"
2,182 to 183 °C,Cc1ccc2cc(C(=O)Nc3cnc4c(c3)nc3n4CCC3)n(Cc3cccc(F)c3)c2c1
3,303 to 304 °C,Cc1cccc2c1cc(C(=O)Nc1cnc3c(c1)nc1n3CCC1)n2Cc1cccc(F)c1
4,262 to 263 °C,"O=C(Nc1cnc2c(c1)nc1n2CCCC1)c1cc2cc(C(F)(F)F)ccc2n1Cc1cccc(F)c1 [Compound 27, N-(6,7,8,9-Tetrahydroimidazo[1,2-a:5,4-b′]dipyridin-3-yl)-5-trifluoromethyl-1-(3-fluorobenzyl)-1H-indole-2-carboxamide]"
5,224 to 226 °C,CCc1ccc2cc(C(=O)Nc3cnc4c(c3)nc3n4CCC3)n(Cc3cccc(F)c3)c2c1
6,234 to 236 °C,"CC(C)(C)c1ccc2c(c1)cc(C(=O)Nc1cnc3c(c1)nc1n3CCC1)n2Cc1cccc(F)c1 [Compound 18, N-(7,8-Dihydro-6H-pyrrolo[2′,1′:2,3]imidazo[4,5-b]pyridin-3-yl)-5-tertbutyl-1-(3-fluorobenzyl)-1H-indole-2-carboxamide]"
7,302 to 303 °C,O=C(Nc1cnc2c(c1)nc1n2CCC1)c1cc2c(Cl)cccc2n1Cc1cccc(F)c1
8,237 to 239 °C,O=C(Nc1cnc2c(c1)nc1n2CCC1)c1cc2cccc(F)c2n1Cc1cccc(F)c1
9,242 to 243 °C,O=C(Nc1cnc2c(c1)nc1n2CCC1)c1cc2cc(F)cnc2n1Cc1cccc(F)c1
10,275 to 277 °C,"CS(=O)(=O)c1ccc2c(c1)cc(C(=O)Nc1cnc3c(c1)nc1n3CCC1)n2Cc1cccc(F)c1 [Compound 21, N-(7,8-Dihydro-6H-pyrrolo[2′,1′:2,3]imidazo[4,5-b]pyridin-3-yl)-5-methylsulfonyl-1-(3-fluorobenzyl)-1H-indole-2-carboxamide]"
11,288 to 290 °C,O=C(Nc1cnc2c(c1)nc1n2CCC1O)c1cc2cc(F)ccc2n1Cc1cccc(F)c1 (racemic)
12,286 to 288 °C,Cc1ccc(C)c2c1cc(C(=O)Nc1cnc3c(c1)nc1n3CCC1)n2Cc1cccc(F)c1
13,267 to 268 °C,"O=C(Nc1cnc2c(c1)nc1n2CCC1O)c1cc2cc(C(F)(F)F)ccc2n1Cc1cccc(F)c1 (stereo not drawn) [Compound 26, N-(6-Hydroxy-7,8-dihydro-6H-pyrrolo[2′,1′:2,3]imidazo[4,5-b]pyridin-3-yl)-5-trifluoromethyl-1-(3-fluorobenzyl)-1H-indole-2-carboxamide]"
14,282 to 283 °C,"CC(=O)NC1CCn2c1nc1cc(NC(=O)c3cc4cc(F)ccc4n3Cc3cccc(F)c3)cnc12 (racemic) [Compound 35, N-(6-Acetylamino-7,8-dihydro-6H-pyrrolo[2′,1′:2,3]imidazo[4,5-b]pyridin-3-yl)-5-fluoro-1-(3-fluorobenzyl)-1H-indole-2-carboxamide]"
15,243 to 244 °C,O=C(Nc1cnc2c(c1)nc1n2CCC1)c1cc2ccccc2n1Cc1cccc(F)c1
16,212 to 213 °C,"CC1(C)CCn2c1nc1cc(NC(=O)c3cc4cc(C(F)(F)F)ccc4n3Cc3cccc(F)c3)cnc12 [Compound 31, N-(6,6-Dimethyl-7,8-dihydro-6H-pyrrolo[2′,1′:2,3]imidazo[4,5-b]pyridin-3-yl)-5-trifluoromethyl-1-(3-fluorobenzyl)-1H-indole-2-carboxamide]"

row,SMILES,melting point
1,"CC(=O)OC1CCn2c1nc1cc(NC(=O)c3cc4cc(F)ccc4n3Cc3cccc(F)c3)cnc12 (racemic) [Compound 2, N-(6-Acetoxy-7,8-dihydro-6H-pyrrolo[2′,1′:2,3]imidazo[4,5-b]pyridin-3-yl)-5-fluoro-1-(3-fluorobenzyl)-1H-indole-2-carboxamide]",139 to 141 °C
